Test results from US6737383B1, “Herbicidal oxadiazolidines” (priority 1999, dated 2004).

What was measured:
[1] = tested on: cocklebur; test: Test B pre/postemergence cocklebur; format: in vivo, Xanthium strumarium
Method in brief: (§1)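 Response is a visual 0-to-10 score relative to untreated plants, where 0 means no effect and 10 means complete control, taken twelve to sixteen days after application. Treatments went onto soil at planting and onto foliage of 1- to 4-leaf plants, using a surfactant-containing non-phytotoxic solvent.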

[2] = tested on: velvetleaf; test: Test B pre/postemergence velvetleaf; format: in vivo, Abutilon theophrasti
Method in brief: as §1

[3] = tested on: smallflower flatsedge; test: Test B flood test smallflower flatsedge; format: in vivo, Cyperus difformis
Method in brief: (§2)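 Read-out is a visual response score from 0 (no effect) to 10 (complete control), assigned by comparison with untreated controls. Treatment was applied at the 2-leaf stage, and plants stayed in the greenhouse for twelve to sixteen days before scoring.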

[4] = tested on: blackgrass; test: Test B pre/postemergence blackgrass; format: in vivo, Alopecurus myosuroides
Method in brief: as §1

[5] = tested on: wheat; test: Test B pre/postemergence wheat; format: in vivo, Triticum aestivum
Method in brief: as §1

[6] = tested on: morningglory; test: Test B pre/postemergence morningglory; format: in vivo, Ipomoea hederacea
Method in brief: as §1

[7] = tested on: rice; test: Test B flood test rice; format: in vivo, Oryza sativa
Method in brief: as §2

[8] = tested on: crabgrass; test: Test B pre/postemergence crabgrass; format: in vivo, Digitaria sanguinalis
Method in brief: as §1

[9] = tested on: purple nutsedge; test: Test B pre/postemergence purple nutsedge; format: in vivo, Cyperus rotundus
Method in brief: as §1

[10] = tested on: giant foxtail; test: Test B pre/postemergence giant foxtail; format: in vivo, Setaria faberii
Method in brief: as §1

[11] = tested on: duck salad; test: Test B flood test duck salad; format: in vivo, Heteranthera limosa
Method in brief: as §2

[12] = tested on: surinam grass; test: Test B pre/postemergence surinam grass; format: in vivo, Brachiaria decumbens
Method in brief: as §1

[13] = tested on: bamyardgrass; test: Test B flood test barnyardgrass; format: in vivo, Echinochloa crus-galli
Method in brief: as §2

[14] = tested on: bedstraw; test: Test B pre/postemergence bedstraw; format: in vivo, Galium aparine
Method in brief: as §1

[15] = tested on: wild oat; test: Test B pre/postemergence wild oat; format: in vivo, Avena fatua
Method in brief: as §1

[16] = tested on: corn; test: Test B pre/postemergence corn; format: in vivo, Zea mays
Method in brief: as §1

[17] = Preemergence, Rate 62 g/ha, scale of 0 to 10 where 0 is no effect and 10 is complete control
[18] = Preemergence, Rate 125 g/ha, 0 is no effect, 10 is complete control
[19] = Preemergence, Rate 250 g/ha, scale 0 to 10, 0 is no effect, 10 is complete control
[20] = Preemergence, Rate 500 g/ha, scale of 0 to 10 where 0 is no effect and 10 is complete control
[21] = Rate 62 g/ha, Postemergence, scale of 0 to 10 where 0 is no effect and 10 is complete control
[22] = Rate 125 g/ha, Postemergence, scale 0 to 10
[23] = Rate 500 g/ha, Postemergence, scale 0 to 10
[24] = Rate 62 g/ha, headed Pre-emergence (flood test species), scale 0 to 10 (0 no effect, 10 complete control)
[25] = Rate 125 g/ha, Pre-emergence, flood test species, scale 0 to 10 where 0 is no effect and 10 is complete control
[26] = Rate 250 g/ha, Pre-emergence, flood-test species, scale 0 to 10, 0 is no effect, 10 is complete control
[27] = Rate 500 g/ha, headed Pre-emergence (flood test species), scale 0 to 10 (0 no effect, 10 complete control)

Cc1ccccc1-n1c(=O)on(C(=O)N(c2ccc(S(C)(=O)=O)cc2)C(C)C)c1=O [Compound 203]
0: Cocklebur plant response rating [1, 17] | Cocklebur plant response rating (0 to 10 scale) [1, 18] | Cocklebur plant response rating [1, 19] | Plant response rating, Cocklebur [1, 20] | Cocklebur plant response rating [1, 21] | Cocklebur plant response rating [1, 22] | Plant response rating (0 to 10; 0 is no effect, 10 is complete control), Cocklebur ([1]; Rate 250 g/ha, Postemergence) | Cocklebur plant response rating [1, 23] | Velvetleaf plant response rating [2, 17] | Velvetleaf plant response rating [2, 19] | Plant response rating, Velvetleaf [2, 20] | Velvetleaf plant response rating [2, 21] | Velvetleaf plant response rating [2, 22] | Plant response rating (0 to 10; 0 is no effect, 10 is complete control), Velvetleaf ([2]; Rate 250 g/ha, Postemergence) | S. Flatsedge plant response rating [3, 24] | S. Flatsedge plant response rating [3, 25] | S. Flatsedge plant response rating [3, 26] | S. Flatsedge plant response rating ([3]; Rate 500 g/ha, Pre-emergence, flood test species, scale 0 to 10 (0 no effect, 10 complete control)) | Blackgrass plant response rating [4, 17] | Blackgrass plant response rating (0 to 10 scale) [4, 18] | Blackgrass plant response rating [4, 19] | Plant response rating, Blackgrass [4, 20] | Blackgrass plant response rating [4, 21] | Blackgrass plant response rating [4, 22] | Plant response rating (0 to 10; 0 is no effect, 10 is complete control), Blackgrass ([4]; Rate 250 g/ha, Postemergence) | Blackgrass plant response rating [4, 23] | Wheat plant response rating [5, 17] | Wheat plant response rating [5, 19] | Plant response rating, Wheat [5, 20] | Wheat plant response rating [5, 21] | Wheat plant response rating [5, 22] | Plant response rating (0 to 10; 0 is no effect, 10 is complete control), Wheat ([5]; Rate 250 g/ha, Postemergence) | Morningglory plant response rating [6, 17] | Morningglory plant response rating (0 to 10 scale) [6, 18] | Morningglory plant response rating [6, 19] | Plant response rating, Morningglory [6, 20] | Morningglory plant response rating [6, 21] | Morningglory plant response rating [6, 22] | Plant response rating (0 to 10; 0 is no effect, 10 is complete control), Morningglory ([6]; Rate 250 g/ha, Postemergence) | Morningglory plant response rating [6, 23] | Rice plant response rating [7, 24] | Rice plant response rating [7, 25] | Rice plant response rating [7, 26] | Plant response rating, Rice [7, 27] | Crabgrass plant response rating [8, 17] | Crabgrass plant response rating (0 to 10 scale) [8, 18] | Crabgrass plant response rating [8, 19] | Plant response rating, Crabgrass [8, 20] | Crabgrass plant response rating [8, 21] | Crabgrass plant response rating [8, 22] | Plant response rating (0 to 10; 0 is no effect, 10 is complete control), Crabgrass ([8]; Rate 250 g/ha, Postemergence) | Crabgrass plant response rating [8, 23] | Nutsedge plant response rating [9, 17] | Nutsedge plant response rating (0 to 10 scale) [9, 18] | Nutsedge plant response rating [9, 19] | Plant response rating, Nutsedge [9, 20] | Nutsedge plant response rating [9, 21] | Nutsedge plant response rating [9, 22] | Plant response rating (0 to 10; 0 is no effect, 10 is complete control), Nutsedge ([9]; Rate 250 g/ha, Postemergence) | Nutsedge plant response rating [9, 23] | Giant foxtail plant response rating [10, 17] | Giant foxtail plant response rating (0 to 10 scale) [10, 18] | Giant foxtail plant response rating [10, 19] | Plant response rating, Giant foxtail [10, 20] | Giant foxtail plant response rating [10, 21] | Giant foxtail plant response rating [10, 22] | Plant response rating (0 to 10; 0 is no effect, 10 is complete control), Giant foxtail ([10]; Rate 250 g/ha, Postemergence) | Giant foxtail plant response rating [10, 23] | Ducksalad plant response rating [11, 24] | Ducksalad plant response rating [11, 25] | Ducksalad plant response rating [11, 26] | Plant response rating, Ducksalad [11, 27] | B. signalgrass plant response rating [12, 17] | B. signalgrass plant response rating (0 to 10 scale) [12, 18] | B. signalgrass plant response rating [12, 19] | Plant response rating, B. signalgrass [12, 20] | B. signalgrass plant response rating [12, 21] | B. signalgrass plant response rating ([12]; Rate 125 g/ha, Postemergence, scale 0 (no effect) to 10 (complete control)) | Plant response rating, B. signalgrass ([12]; Rate 250 g/ha, Postemergence, scale 0 to 10, 0 is no effect, 10 is complete control) | B. signalgrass plant response rating ([12]; Rate 500 g/ha, Postemergence, scale 0 to 10, 0 no effect, 10 complete control) | Barnyardgrass plant response rating [13, 24] | Barnyardgrass plant response rating [13, 25] | Barnyardgrass plant response rating [13, 26] | Plant response rating, Barnyardgrass [13, 27] | Bedstraw plant response rating [14, 17] | Bedstraw plant response rating (0 to 10 scale) [14, 18] | Bedstraw plant response rating [14, 19] | Plant response rating, Bedstraw [14, 20] | Bedstraw plant response rating [14, 21] | Bedstraw plant response rating [14, 22] | Plant response rating (0 to 10; 0 is no effect, 10 is complete control), Bedstraw ([14]; Rate 250 g/ha, Postemergence) | Bedstraw plant response rating [14, 23] | Wild oats plant response rating [15, 17] | Wild oats plant response rating [15, 19] | Plant response rating, Wild oats [15, 20] | Wild oats plant response rating [15, 21] | Wild oats plant response rating [15, 22] | Plant response rating (0 to 10; 0 is no effect, 10 is complete control), Wild oats ([15]; Rate 250 g/ha, Postemergence) | Corn plant response rating [16, 17] | Corn plant response rating (0 to 10 scale) [16, 18] | Corn plant response rating [16, 19] | Plant response rating, Corn [16, 20] | Corn plant response rating [16, 21] | Corn plant response rating [16, 22] | Plant response rating (0 to 10; 0 is no effect, 10 is complete control), Corn ([16]; Rate 250 g/ha, Postemergence) | Corn plant response rating [16, 23]
